The source of these data is patent US4708954A, “Hypogylcemic oxaluric acid derivatives” (Nippon Zoki Pharmaceutical Co., Ltd., priority 1985, dated 1987).

One series has as its system Wistar-strain male rats. Nature of the series: Hypoglycemic effect (blood glucose level in fasted, glucose-loaded rats). Format: in vivo. The conditions noted are these: 100 mg/kg oral, 2 hours later; for Blood Glucose Level: fasted rats with s.c. 20% glucose 0.5 ml/100 g, control 139 ± 3; for inhibition in vivo at 100 mg/kg: Rattus norvegicus, decrease vs control (139 ± 3 mg/dl). How it is done: Groups of 7 Wistar-strain male rats (weighing about 200 g) which were fasted for 20 hours were used for measurement of the hypoglycemic effect according to the modified method by Dulin et al. [Dulin, W. L. et al., Proc. Soc. Expl. Med., 107, 245 (1961)]. That is, 0.5 ml/100 g of 20% aqueous solution of glucose was subcutaneously administered to the backs of rats to prevent a decrease in blood glucose level because of the fasting. […] The obtained blood sample was allowed to stand for 30 minutes to complete the coagulation and was centrifuged to obtain the serum. Blood sugar level was measured according to the mutalotase GOD method [Trinder, Ann. Clin. Biochem., 6, 24 (1979)].

Series [1] can be described thus: Acute toxicity test (oral, lethal dose by deaths over 7 days). The conditions noted are these: mouse, in vivo, suspended in 0.5% aqueous C.M.C., fasted 20 hours, deaths for 7 days. How it is done: The test compounds of the present invention suspended in 0.5% aqueous solution of carboxymethylcellulose (C.M.C.) were orally administered to groups of 4 to 6 ddY-strain male mice (weighing about 19 g) which had fasten for 20 hours. The lethal dose was determined by the number of deaths for 7 days thereafter.

Structures can show the parent of a compound that is named as a salt.

As to `CCCCNC(=O)NS(=O)(=O)c1ccc(C)cc1` [Tolubutamide, reference compound], in the series on Wistar-strain male rats, the “Blood Glucose Level” value is 50 ± 1 mg/dL and 100 mg/kg produced 64% inhibition in vivo.

Regarding `CNC(=O)NC(=O)C(=O)O` [compound 1, 5-methyloxaluric acid ammonium salt], in the series on Wistar-strain male rats, the “Blood Glucose Level” value came to 104 ± 7 mg/dL and the inhibition in vivo at 100 mg/kg was determined as 25.2%.

Regarding `CCOC(=O)C(=O)NC(=O)NCC(C)C` [compound 14, 5-iso-butyloxaluric acid ethyl ester], in the series with Wistar-strain male rats, the “Blood Glucose Level” value came out at 93 ± 2 mg/dL and testing at 100 mg/kg gave an inhibition in vivo of 33.1%.

Take `CCCCOC(=O)C(=O)NC(=O)NC` [compound 20, 5-methyloxaluric acid butyl ester]: in the series on Wistar-strain male rats, the “Blood Glucose Level” value was 101 ± 6 mg/dL and testing at 100 mg/kg gave an inhibition in vivo of 27.3%. Also, the 50% lethal dose (LD50) at 168 h in series [1] was > 4000 mg/kg.

With `CNC(=O)NC(=O)C(=O)OCC(C)C` [compound 21, 5-methyloxaluric acid iso-butyl ester], in the series on Wistar-strain male rats, the “Blood Glucose Level” value turned out to be 115 ± 4 mg/dL and the inhibition in vivo at 100 mg/kg was 17.3%.

With `CCCCNC(=O)NC(=O)C(=O)OC` [compound 13, 5-butyloxaluric acid methyl ester], in the series with Wistar-strain male rats, the “Blood Glucose Level” value came to 88 ± 3 mg/dL and the inhibition in vivo at 100 mg/kg came out at 36.7%. Also, in series [1], the median lethal dose (LD50) at 168 h was in the range of 1000 to 2000 mg/kg.

On to `CCNC(=O)NC(=O)C(=O)O` [compound 2, 5-ethyloxaluric acid ammonium salt], for which, in the series with Wistar-strain male rats, the “Blood Glucose Level” value is 102 ± 4 mg/dL and the inhibition in vivo at 100 mg/kg is 26.6%. This molecule displayed a median lethal dose (LD50) at 168 h in series [1] of 3000 to 4000 mg/kg.

For `CCCCNC(=O)NC(=O)C(=O)O` [compound 3, 5-butyloxaluric acid], in the series with Wistar-strain male rats, the “Blood Glucose Level” value was 103 ± 5 mg/dL and testing at 100 mg/kg gave an inhibition in vivo of 26%.

With `CCCCCCCCOC(=O)C(=O)NC(=O)NC` [compound 22, 5-methyloxaluric acid octyl ester], in the series on Wistar-strain male rats, the “Blood Glucose Level” value is 122 ± 2 mg/dL and testing at 100 mg/kg gave an inhibition in vivo of 12.2%.

In the case of `CCOC(=O)C(=O)NC(=O)NC` [compound 12, 5-methyloxaluric acid ethyl ester], in the series on Wistar-strain male rats, the “Blood Glucose Level” value was 81 ± 5 mg/dL and the inhibition in vivo at 100 mg/kg turned out to be 41.7%.

One may read the inhibition in vivo as the share of the control response that was lost under treatment. A low value points to a response near the control. As a reminder, the LD50 is the dose expected to kill half of the subjects tested. Lower therefore signals greater toxicity.
